The text below walks through data of the supplement of paper PMC8024199.

Holding throughout (experiment): drug sensitivity score (DSS) (DSS score); higher = more sensitive (stronger growth inhibition); extreme values may be limits of the assay
The subject of test [1] is Ba/F3 P210-BCR-ABL1 RUNX1wt/wt control (mouse). In a few lines:
(§1)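 A drug sensitivity score summarised each dose-response curve, with luminescence from CellTiter-Glo scaled between vehicle and positive-control wells. Values are the mean of two replicates. The cells were mouse Ba/F3 clones that were CRISPR/Cas9-edited at a target exon or were edited controls, exposed on pre-printed 384-well plates to a 528-compound library at five concentrations spanning a 10,000-fold range. Plates held 10,000 cells per well in RPMI with 10% FBS for 72 h at 37 °C and 5% CO2.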

Test [2] concerns Ba/F3 P210-BCR-ABL1 RUNX1-/mut (mouse). In a few lines: as §1
In test [3] the test system is Ba/F3 P210-BCR-ABL1 RUNX1-/- (mouse). In a few lines:
as §1

± gives the standard deviation of the averaged measurements.

`CN1CC[C@@H](NC(=O)Nc2ccc(C#N)cc2)C[C@@H]1c1nc2ccccc2[nH]1` [Glasdegib]: the figures for the drug sensitivity score in test [1], in test [2] and in test [3] were 0.05 ± 0.071, 0 and 0, respectively.
As to `CCCCCCCCCCCCCCCCCCOP(=O)([O-])OC1CC[N+](C)(C)CC1` [Perifosine], the drug sensitivity score in test [1], in test [2] and in test [3] was 0 in each case.
`CC(C)Oc1ccc(-c2nn([C@@H](C)c3oc4ccc(F)cc4c(=O)c3-c3cccc(F)c3)c3ncnc(N)c23)cc1F` [TGR-1202]: the drug sensitivity score in test [1] amounted to 0; in test [2] it was 1.2 ± 1.4; in test [3], 3.4 ± 0.99.
The corresponding values for `Nc1nc(Nc2ccc3c(c2)CC[C@@H](N2CCCC2)CC3)nn1-c1cc2c(nn1)-c1ccccc1CCC2` [BGB324] are 5.65 ± 0.21, 6.35 ± 1.2 and 7.3 ± 0.57.
The corresponding values for `Nc1ccccc1NC(=O)c1ccc(CNc2nccc(-c3cccnc3)n2)cc1` [Mocetinostat] are 17.1 ± 0.14, 17.4 ± 2.3 and 17.5 ± 1.6.
In the same order, the values of `COc1ccc2[nH]cc(/C=C3\C(=O)Nc4ccc(NC(=O)CCN5CCCCC5)cc43)c2c1` are 6.05 ± 1.1, 15.2 ± 4.4 and 14.8 ± 2.5.
Take `CCN(CC)CCN(Cc1ccc(-c2ccc(C(F)(F)F)cc2)cc1)C(=O)Cn1c(SCc2ccc(F)cc2)nc(=O)c2c1CCC2` [Darapladib]: the drug sensitivity score in test [1] was found to be 0; in test [2], 2.65 ± 3.2; in test [3], 1.9 ± 0.14.
The corresponding values for `CNC(=O)[C@@H](NC(=O)[C@H](CC(C)C)[C@H](O)C(=O)NO)C(C)(C)C` [Marimastat] are 0, 0.35 ± 0.49 and 0.
Turning to `C=CCn1c(=O)c2cnc(Nc3ccc(N4CCN(C)CC4)cc3)nc2n1-c1cccc(C(C)(C)O)n1` [AZD1775], the drug sensitivity score in test [1] was 19.1 ± 0.14; in test [2], 20.8 ± 1.5; in test [3] it was 22.8 ± 3.5.
In the same order, the values of `C[C@@H]1C=C2C(=O)O[C@@H]3CC[C@H](C1)[C@]23O` [Galiellalactone] are 5.1, 9.7 ± 4.1 and 12 ± 3.1.
Take `CN(C)CC#Cc1ccc(OCCCc2sc(N3CCc4cccc(C(=O)Nc5nc6ccccc6s5)c4C3)nc2C(=O)O)c(F)c1`: the drug sensitivity score in test [1] came to 3 ± 0.14; in test [2] it was 5.95 ± 4.7; in test [3], 5.55 ± 0.071.
The corresponding values for `c1cn2cc(-c3ccc4cn[nH]c4c3)nc(Nc3ccc(N4CCOCC4)cc3)c2n1` [Entospletinib] are 0, 1.35 ± 1.9 and 1.95 ± 1.3.
Turning to `N#Cc1ccnc(N2C(=O)CC[C@H]2C(=O)N(c2cncc(F)c2)[C@H](C(=O)NC2CC(F)(F)C2)c2ccccc2Cl)c1` [Ivosidenib], the results for the drug sensitivity score in test [1], in test [2] and in test [3] were 0, 1.35 ± 1.9 and 0.3 ± 0.42, respectively.
Regarding `CC1(C)OCCn2c1nc1c(N3CCOCC3)nc(-c3cnc(N)nc3)nc12` [GDC-0084], the drug sensitivity score in test [1] was 4.8; in test [2], 10.3 ± 0.85; in test [3], 9.3 ± 0.14.
The corresponding values for `CN[C@@H](C)C(=O)N[C@H](C(=O)N1CCC[C@H]1c1nc(C(=O)c2ccc(F)cc2)cs1)C1CCCCC1` [NVP-LCL161] are 23.6 ± 2.8, 7.6 ± 8.5 and 26.4 ± 4.4.
The corresponding values for `Cc1cccc(-c2nn3c(c2-c2ccnc4ccc(C(N)=O)cc24)CCC3)n1` [Galunisertib] are 0, 0 and 0.
In the same order, the values of `COc1cc(NS(C)(=O)=O)ccc1Nc1c2ccccc2nc2ccccc12` [Amsacrine] are 21.6 ± 0.85, 25.3 ± 0.71 and 35.3 ± 2.7.
For `COc1cc(N2CCC(N3CCN(C)CC3)CC2)ccc1Nc1ncnc(Nc2ccccc2S(=O)(=O)C(C)C)n1` [ASP3026], the results for the drug sensitivity score in test [1], in test [2] and in test [3] were 1.05 ± 0.21, 3.9 ± 3.7 and 3.95 ± 1.6, respectively.
In the same order, the values of `Cn1ncc(Cl)c1-c1cc(C(=O)N[C@H](CN)Cc2ccc(F)c(F)c2)oc1Cl` [Uprosertib] are 0, 0 and 0.4 ± 0.57.
Regarding `CN(C)C(=N)NC(=N)N` [Metformin], the drug sensitivity score in test [1], in test [2] and in test [3] was 0 in each case.
Turning to `COc1ccc(Cn2ccc3ccc(C(=O)NO)cc32)cc1`, the drug sensitivity score in test [1] came out at 0; in test [2], 4.25 ± 0.78; in test [3] it was 3.15 ± 1.6.
With `CCn1c(-c2nonc2N)nc2cnc(Oc3cccc(NC(=O)c4ccc(OCCN5CCOCC5)cc4)c3)cc21`, the drug sensitivity score in test [1] was found to be 1.45 ± 0.071; in test [2], 4.25 ± 2.3; in test [3] it was 5.55 ± 1.1.
In the same order, the values of `Nc1nc(OCc2cc(Br)cs2)c2[nH]cnc2n1` [Lomeguatrib] are 0, 0.05 ± 0.071 and 0.
The corresponding values for `NS(=O)(=O)NCCNc1nonc1/C(=N/O)Nc1ccc(F)c(Br)c1` [Epacadostat] are 0, 0.7 ± 0.99 and 1.05 ± 1.2.
The corresponding values for `CC[C@@H]1CN(C(=O)NCC(F)(F)F)C[C@@H]1c1cnc2cnc3[nH]ccc3n12` [Upadacitinib] are 5.35 ± 3, 0.05 ± 0.071 and 0.75 ± 1.1.
In the case of `CC/C(=C(\c1ccc(O)cc1)c1ccc(OCCN(C)C)cc1)c1ccccc1` [4-hydroxytamoxifen], the drug sensitivity score in test [1] is 8.6 ± 0.28; in test [2], 8.3 ± 1.1; in test [3], 8.2 ± 0.42.
In the same order, the values of `CCn1c(=O)c(-c2ccc(Cl)cc2Cl)cc2cnc(Nc3ccc(N4CCNCC4)c(F)c3)nc21` [FRAX486] are 8.95 ± 0.64, 16.4 ± 0.42 and 23.2 ± 1.2.
Regarding `Cc1noc2c1-c1ccccc1C(c1ccc(Cl)cc1)=N[C@H]2CC(N)=O` [CPI-0610], the drug sensitivity score in test [1] amounted to 14 ± 0.28; in test [2], 19.1 ± 4.6; in test [3] it was 19.6 ± 1.1.
In the same order, the values of `CCNC(=O)c1noc(-c2cc(C(C)C)c(O)cc2O)c1-c1ccc(CN2CCOCC2)cc1` [Luminespib] are 18.4 ± 0.57, 28.7 ± 3.2 and 29.4 ± 1.7.
In the same order, the values of `CO[C@H]1C[C@@H]2CC[C@@H](C)[C@@](O)(O2)C(=O)C(=O)N2CCCC[C@H]2C(=O)O[C@H]([C@H](C)C[C@@H]2CC[C@@H](OP(C)(C)=O)[C@H](OC)C2)CC(=O)[C@H](C)/C=C(\C)[C@@H](O)[C@@H](OC)C(=O)[C@H](C)C[C@H](C)/C=C/C=C/C=C/1C` [Ridaforolimus] are 0.15 ± 0.21, 15.7 ± 2.7 and 13.3 ± 3.8.
